“Also recorded” adds a separate entry of the source.
Experiments:
[1] = CT live imaging of CSF tracer after intracisternal infusion, with dispersion model; format: in vivo, mouse
Description: During the CM cannulation procedure a custom-made head bar was fixed on the top of the animal skull. The head bar was designed to minimize undesired movements during the image acquisition (Yoshida et al., 2016), and fixed to an animal holder. […] Animal's respiration was monitored by using Biovet software. CT scans were performed with the Vector4CT system (MILabs, Utrecht, Netherlands) and scanning of the entire mouse head was performed in 4.56 min at an isotropic spatial resolution of 20 μm. The time series CT scanning protocol comprised one baseline scan (4.5 min) followed by intracisternal infusion of Omnipaque (350 mg I/ml, 1 μL/min, 10 μL, GE healthcare). Scans continued over 6 measurements (30 min) after intracisternal infusion of Omnipaque.
The time-intensity data was extracted using ITK snap with the ROIs described above after background subtraction and then normalized to maximal cisterna magna intensity. Dimensions of cochlear aqueduct were measured using the #X feature in ITK snap for #four animals. Distances between ROIs were calculated using their spatial coordinates.
To solve the equation (#ref), inventors implemented a simple finite difference scheme in Python (#ref) using NumPy and Scipy (#ref). Estimation of the dispersion coefficient was achieved by minimizing the L2-norm prediction error, using Scipy (#ref) E: […]

[2] = mouse, in vivo
Description: Briefly, mice were anesthetized with a mixture of Ketamine/Xylazine (100 mg/kg, 10 mg/kg, respectively), after depth of anesthesia was confirmed by the cessation of reflexes, the incision area was properly shaved and sterilized with the aid of ethanol 70% swabs (Vitrex Medical A/S Herlev, DK), followed by iodine solution (Povidone Iodine 7.5% Henry Schein, Melville, NY, USA) applicated using cotton swabs. Before the onset of surgery, analgesics were applied, Lidocaine (0.05 ml, 0.2 mg/ml) was applied in the incision site and Buprenorphine (0.05 mg/kg) injected subcutaneously for post-surgical analgesia. After performing the skin incision around the occipital crest, the neck muscles were separated to reveal the CM underneath. […]
Immediately after the CM cannulation procedure, animals were moved to MRI scanner and head movement during scanning was minimized by restraining the animals on an MR-compatible stereotactic holder with ear bars. Body temperature was maintained at 37±0.5° C. with a thermostatically controlled waterbed and monitored, along with the respiratory rate by an MR compatible remote monitoring system (SA Instruments, NY, USA). […] Every 3D-CISS image was calculated as a maximum intensity projection from 4 realigned 3D-TrueFISP volumes with 4 orthogonal phase encoding directions (TR/TE 3.9/1.95 ms, Nex 2, FA 50°, FOV 19.2×12.8×12.8 mm, Matrix 192×128×128, BW 150 kHz). […]

| Time activity curves for tracer influx in mice lacking aqp4 [2] | Time to reach 50 max [2] | Structure (SMILES) | Tracer concentration in scala vestibuli or cochlear nerve (CT) ([1]; during the 30 min of scanning) | Tracer dispersal into scala tympani (CT) ([1]; intracisternal delivery, 30 min of scanning) |
| --- | --- | --- | --- | --- |
| – | – | CC(=O)N(CC(O)CO)c1c(I)c(C(=O)NCC(O)CO)c(I)c(C(=O)NCC(O)CO)c1I (stereo not shown) [Omnipaque] | No clear rise; also recorded: no significant tracer arrives | reaches the base and middle region of the scala tympani; also recorded: moves into the base of scala tympani |
| did not differ from wild type animals | significantly higher in the cochlea | O=C([O-])CN1CCN(CC(=O)[O-])CCN([C@H](CO)[C@H](O)CO)CCN(CC(=O)[O-])CC1.[Gd+3] (racemic) [Gadovist, gadobutrol] | – | – |
